System: NOMO1
Assay: cell viability relative to DMSO control; higher = less cytotoxic
Conditions: 48 h
Summary of the method: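 NOMO1 or SEM (500 cells/well) or P12-Ichikawa (1000 cells/well) leukemia cells were adapted for at least four passages in each medium. They were seeded in 1536-well plates (5 μl) and pin-dosed with library compounds in DMSO over an 11-point threefold series, 47 μM to 0.79 nM. CellTiter-Glo One luminescence was read after 48 h at 37°C. Viability is the per-plate percentage relative to DMSO wells, with cell-free wells as background.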

[1] = HPLM + 10% dialyzed FBS, 0.000781 µM
[2] = HPLM + 10% dialyzed FBS, 0.00234 µM
[3] = HPLM + 10% dialyzed FBS, 0.00702 µM
[4] = HPLM + 10% dialyzed FBS, 0.0211 µM
[5] = HPLM + 10% dialyzed FBS, 0.0632 µM
[6] = HPLM + 10% dialyzed FBS, 0.19 µM
[7] = HPLM + 10% dialyzed FBS, 0.569 µM
[8] = HPLM + 10% dialyzed FBS, 1.71 µM
[9] = HPLM + 10% dialyzed FBS, 5.12 µM
[10] = HPLM + 10% dialyzed FBS, 15.4 µM
[11] = HPLM + 10% dialyzed FBS, 46.1 µM
[12] = RPMI 5 mM glucose + 10% FBS, 0.000781 µM
[13] = RPMI 5 mM glucose + 10% FBS, 0.00234 µM
[14] = RPMI 5 mM glucose + 10% FBS, 0.00702 µM
[15] = RPMI 5 mM glucose + 10% FBS, 0.0211 µM
[16] = RPMI 5 mM glucose + 10% FBS, 0.0632 µM
[17] = RPMI 5 mM glucose + 10% FBS, 0.19 µM
[18] = RPMI 5 mM glucose + 10% FBS, 0.569 µM
[19] = RPMI 5 mM glucose + 10% FBS, 1.71 µM
[20] = RPMI 5 mM glucose + 10% FBS, 5.12 µM
[21] = RPMI 5 mM glucose + 10% FBS, 15.4 µM
[22] = RPMI 5 mM glucose + 10% FBS, 46.1 µM
[23] = RPMI 5 mM glucose + 10% dialyzed FBS, 0.000781 µM
[24] = RPMI 5 mM glucose + 10% dialyzed FBS, 0.00234 µM
[25] = RPMI 5 mM glucose + 10% dialyzed FBS, 0.00702 µM
[26] = RPMI 5 mM glucose + 10% dialyzed FBS, 0.0211 µM
[27] = RPMI 5 mM glucose + 10% dialyzed FBS, 0.0632 µM
[28] = RPMI 5 mM glucose + 10% dialyzed FBS, 0.19 µM
[29] = RPMI 5 mM glucose + 10% dialyzed FBS, 0.569 µM
[30] = RPMI 5 mM glucose + 10% dialyzed FBS, 1.71 µM
[31] = RPMI 5 mM glucose + 10% dialyzed FBS, 5.12 µM
[32] = RPMI 5 mM glucose + 10% dialyzed FBS, 15.4 µM
[33] = RPMI 5 mM glucose + 10% dialyzed FBS, 46.1 µM

| Compound | cell viability [1] [%] | cell viability [2] [%] | cell viability [3] [%] | cell viability [4] [%] | cell viability [5] [%] | cell viability [6] [%] | cell viability [7] [%] | cell viability [8] [%] | cell viability [9] [%] | cell viability [10] [%] | cell viability [11] [%] | cell viability [12] [%] | cell viability [13] [%] | cell viability [14] [%] | cell viability [15] [%] | cell viability [16] [%] | cell viability [17] [%] | cell viability [18] [%] | cell viability [19] [%] | cell viability [20] [%] | cell viability [21] [%] | cell viability [22] [%] | cell viability [23] [%] | cell viability [24] [%] | cell viability [25] [%] | cell viability [26] [%] | cell viability [27] [%] | cell viability [28] [%] | cell viability [29] [%] | cell viability [30] [%] | cell viability [31] [%] | cell viability [32] [%] | cell viability [33] [%] |
| --- | --- | --- | --- | --- | --- | --- | --- | --- | --- | --- | --- | --- | --- | --- | --- | --- | --- | --- | --- | --- | --- | --- | --- | --- | --- | --- | --- | --- | --- | --- | --- | --- | --- |
| CO/N=C(/C(=O)N[C@@H]1C(=O)N2C(C(=O)O)=C(CSC(=O)c3ccco3)CS[C@H]12)c1csc(N)n1 | 81.5 | 106 | 116 | 102 | 113 | 103 | 109 | 85.5 | 64.8 | 53 | 48.8 | 89.4 | 104 | 99.4 | 98.6 | 103 | 103 | 109 | 92.5 | 90.9 | 73.8 | 77.2 | 82.9 | 97.4 | 99.9 | 111 | 104 | 101 | 111 | 103 | 82.5 | 81.3 | 58.5 |
| OCCC#Cc1nc(-c2ccc(F)cc2)c(-c2ccncc2)n1CCCc1ccccc1 | – | – | – | – | – | – | – | – | – | – | – | 119 | 122 | 122 | 135 | 127 | 138 | 150 | 136 | 128 | 132 | 116 | – | – | – | – | – | – | – | – | – | – | – |
| CC/1=C(\O)C(=O)\C=C2/C1=C/C=C3\[C@@]2(C)CC[C@@]4(C)[C@@H]5C[C@@](C)(CC[C@]5(C)CC[C@]34C)C(O)=O | 104 | 119 | 97.5 | 99.6 | 108 | 115 | 113 | 90 | 23.4 | 8.21 | 8.32 | 92.5 | 103 | 102 | 105 | 95 | 90.6 | 85.6 | 89.7 | 26.2 | 11 | 6.03 | 108 | 104 | 112 | 99.8 | 109 | 97.6 | 110 | 82.6 | 20.6 | 14.1 | 5.2 |
| CC(O)C1C2C(C)\C(=C(/N2C1=O)C(O)=O)SC3CNC(C3)C(=O)N(C)C (stereo unspecified) | 75.7 | 78.3 | 85.5 | 94.8 | 99 | 82.5 | 87.7 | 97.5 | 82.8 | 81.7 | 88.7 | 86.1 | 84.1 | 85.2 | 89.1 | 81.7 | 84.4 | 82.5 | 81.6 | 82.8 | 88.4 | 86.3 | 68.1 | 73.9 | 72.6 | 84.1 | 84.2 | 86.2 | 85.6 | 88.4 | 82.6 | 91.5 | 91 |
| C[S+](=O)([O-])c1ccc(Oc2cc(F)cc(C#N)c2)c2c1[C@H](O)C(F)(F)C2 | 96.5 | 123 | 123 | 112 | 119 | 119 | 139 | 126 | 112 | 120 | 121 | 92.7 | 111 | 101 | 103 | 119 | 117 | 101 | 112 | 124 | 108 | 114 | 97.4 | 102 | 103 | 109 | 111 | 127 | 123 | 125 | 117 | 125 | 114 |
| COc1cc(O)c2c(c1)C(=O)c1cc(C)cc(O)c1C2=O | – | – | – | – | – | – | – | – | – | – | – | 107 | 119 | 111 | 115 | 102 | 113 | 101 | 110 | 105 | 92.3 | 31.2 | 115 | 114 | 110 | 110 | 120 | 118 | 109 | 119 | 120 | 85.4 | 24.3 |
| CN(C)C1=C(Br)C=C(C=C1)C\2NC3=C(\C4=C2C(=O)CC(C)(C)C4)C5=CC=CC=C5C=C3 (stereo unspecified) | – | – | – | – | – | – | – | – | – | – | – | 103 | 124 | 119 | 113 | 114 | 103 | 113 | 98 | 110 | 103 | 102 | 75.9 | 117 | 158 | 172 | 182 | 71.7 | 52.3 | 89.3 | 143 | 74.4 | 94.8 |
| COc1cc(C(=O)NS(=O)(=O)c2ccccc2C)ccc1Cc1cn(C)c2ccc(NC(=O)OC3CCCC3)cc12 | 66.5 | 66.3 | 75.8 | 91.5 | 79.7 | 77.8 | 87.3 | 87.3 | 87.1 | 83.8 | 31.1 | 77.7 | 86.9 | 79.6 | 80.1 | 77.6 | 86.5 | 82.4 | 87.6 | 85.2 | 80.4 | 18.9 | 68 | 84.5 | 76.4 | 92.9 | 88.8 | 99.7 | 83.5 | 81.6 | 86.1 | 81.2 | 6.79 |
| C[C@]12CCC\3=C\4CCC(=O)\C=C4CC[C@H]3[C@@H]1CC[C@@]2(O)CC#N | 123 | 123 | 138 | 144 | 143 | 139 | 138 | 125 | 158 | 137 | 168 | – | – | – | – | – | – | – | – | – | – | – | – | – | – | – | – | – | – | – | – | – | – |
